Data published in patent US20230266302A1, “SYNTHESIS AND USE OF N-BENZYL SULFONAMIDES” (THE UNIVERSITY OF TULSA, priority 2020, published 2023).

How the values were obtained:
Experiment in all cases: ATP level assay (CellTiter-Glo), percent of control
Assay type in all cases: cell-based
HeLa (cervical cancer) = details: two hour incubation; for activity at 100 µM: Homo sapiens, HeLa, 2 h, compound alone, control DMSO, read-out: POC (percent of control) HeLa
[1] = test system: BxPC3 (pancreatic cancer); details: two hour incubation; for activity at 100 µM: Homo sapiens, BXPC-3, 2 h, compound alone, control DMSO, read-out: POC (percent of control) BxPC3
T47D (breast cancer) = details: two hour incubation; for activity at 100 µM: Homo sapiens, T47D, 2 h, compound alone, control DMSO, read-out: POC (percent of control) T47D
NCI-H196 (lung cancer) = details: two hour incubation; for activity at 100 µM: NCI-H196, 2 h, compound alone, control DMSO, read-out: POC (percent of control) NCI-H196
PC3 (prostate cancer) = details: two hour incubation; for activity at 100 µM: 2 h, compound alone, control DMSO, read-out: POC (percent of control) PC3
MCF7 (breast cancer) = details: two hour incubation; for activity at 100 µM: Homo sapiens, MCF7, 2 h, compound alone, control DMSO, read-out: POC (percent of control) MCF7
H293 (kidney cancer) = details: two hour incubation; for activity at 100 µM: 2 h, compound alone, control DMSO, read-out: POC (percent of control) H293
SkBr3 (breast cancer) = details: two hour incubation; for activity at 100 µM: Homo sapiens, SK-BR-3, 2 h, compound alone, control DMSO, read-out: POC (percent of control) SkBr3
[2] = test system: MCF10A (non-cancerous breast); details: two hour incubation; for activity at 100 µM: Homo sapiens, MCF-10A, 2 h, compound alone, control DMSO, read-out: POC (percent of control) MCF10A
MDA-MB (breast cancer) = details: two hour incubation; for activity at 100 µM: 2 h, compound alone, control DMSO, read-out: POC (percent of control) MDA-MB
HDF (normal cells) = details: two hour incubation; for activity at 100 µM: 2 h, compound alone, control DMSO, read-out: POC (percent of control) HDF
[3] = compound 100 uM + 2DG (about 10-20 mM)
[4] = compound 100 uM + rotenone (approximately 1.25 μM)

SMILES	activity at 100 µM (HeLa (cervical cancer))	POC (percent of control) HeLa (HeLa (cervical cancer); [3])	POC (percent of control) HeLa (HeLa (cervical cancer); [4])	activity at 100 µM [1]	POC (percent of control) BxPC3 [1, 4]	activity at 100 µM (T47D (breast cancer))	POC (percent of control) T47D (T47D (breast cancer); [3])	POC (percent of control) T47D (T47D (breast cancer); [4])	activity at 100 µM (NCI-H196 (lung cancer))	POC (percent of control) NCI-H196 (NCI-H196 (lung cancer); [3])	POC (percent of control) NCI-H196 (NCI-H196 (lung cancer); [4])	activity at 100 µM (PC3 (prostate cancer))	POC (percent of control) PC3 (PC3 (prostate cancer); [3])	POC (percent of control) PC3 (PC3 (prostate cancer); [4])	activity at 100 µM (MCF7 (breast cancer))	POC (percent of control) MCF7 (MCF7 (breast cancer); [3])	POC (percent of control) MCF7 (MCF7 (breast cancer); [4])	activity at 100 µM (H293 (kidney cancer))	POC (percent of control) H293 (H293 (kidney cancer); [3])	POC (percent of control) H293 (H293 (kidney cancer); [4])	also measured
Cc1ccc(S(=O)(=O)NCc2nccs2)cc1 [Compound 19, 4-methyl-N-(1,3-thiazol-2-ylmethyl)benzenesulfonamide]	104%	94.8% of control	109.3% of control	96.2%	107.2% of control	91.5%	87.4% of control	86.7% of control	117%	107.3% of control	94.3% of control	108%	127.1% of control	98.9% of control	134%	104% of control	92.1% of control	82.2%	87.2% of control	79.1% of control	POC (percent of control) BxPC3 [1, 3]: 98.4% of control; activity at 100 µM (SkBr3 (breast cancer)): 119%; POC (percent of control) SkBr3 (SkBr3 (breast cancer); [3]): 105.9% of control; POC (percent of control) SkBr3 (SkBr3 (breast cancer); [4]): 108.6% of control; activity at 100 µM [2]: 83.9%; POC (percent of control) MCF10A [2, 3]: 95.8% of control; POC (percent of control) MCF10A [2, 4]: 119.8% of control; activity at 100 µM (MDA-MB (breast cancer)): 104%; POC (percent of control) MDA-MB (MDA-MB (breast cancer); [3]): 89.5% of control; POC (percent of control) MDA-MB (MDA-MB (breast cancer); [4]): 112% of control; activity at 100 µM (HDF (normal cells)): 92.5%; POC (percent of control) HDF (HDF (normal cells); [3]): 98.9% of control; POC (percent of control) HDF (HDF (normal cells); [4]): 87.3% of control
O=S(=O)(NCc1ccco1)c1ccc(Cl)cc1 [Compound 20, 4-chloro-N-(furan-2-ylmethyl)benzenesulfonamide]	103%	91.7% of control	117.2% of control	95.8%	94.8% of control	73.9%	69.7% of control	101.6% of control	100%	90.6% of control	102.1% of control	91.1%	83.8% of control	100.4% of control	138%	87.3% of control	124.6% of control	104%	84.4% of control	69.4% of control	POC (percent of control) BxPC3 [1, 3]: 86.4% of control; activity at 100 µM (SkBr3 (breast cancer)): 104%; POC (percent of control) SkBr3 (SkBr3 (breast cancer); [3]): 96.7% of control; POC (percent of control) SkBr3 (SkBr3 (breast cancer); [4]): 102.5% of control; activity at 100 µM [2]: 102%; POC (percent of control) MCF10A [2, 3]: 78.1% of control; POC (percent of control) MCF10A [2, 4]: 102.9% of control; activity at 100 µM (MDA-MB (breast cancer)): 97.4%; POC (percent of control) MDA-MB (MDA-MB (breast cancer); [3]): 82.9% of control; POC (percent of control) MDA-MB (MDA-MB (breast cancer); [4]): 98.5% of control; activity at 100 µM (HDF (normal cells)): 90.9%; POC (percent of control) HDF (HDF (normal cells); [3]): 88.1% of control; POC (percent of control) HDF (HDF (normal cells); [4]): 103.1% of control
Cc1ccc(S(=O)(=O)NCc2coc(C)n2)cc1 [Compound 21, 4-methyl-N-[(2-methyl-1,3-oxazol-4-yl)methyl]benzenesulfonamide]	101%	105.8% of control	109.4% of control	112%	114.8% of control	88.7%	99.4% of control	86.4% of control	108%	107.4% of control	130.5% of control	93.3%	131.7% of control	110.9% of control	189%	121.1% of control	111% of control	115%	87.8% of control	87% of control	POC (percent of control) BxPC3 [1, 3]: 106.8% of control; activity at 100 µM (SkBr3 (breast cancer)): 102%; POC (percent of control) SkBr3 (SkBr3 (breast cancer); [3]): 108.5% of control; POC (percent of control) SkBr3 (SkBr3 (breast cancer); [4]): 106.9% of control; activity at 100 µM [2]: 108%; POC (percent of control) MCF10A [2, 3]: 92.8% of control; POC (percent of control) MCF10A [2, 4]: 120% of control; activity at 100 µM (MDA-MB (breast cancer)): 101%; POC (percent of control) MDA-MB (MDA-MB (breast cancer); [3]): 100.7% of control; POC (percent of control) MDA-MB (MDA-MB (breast cancer); [4]): 121.5% of control; activity at 100 µM (HDF (normal cells)): 87.9%; POC (percent of control) HDF (HDF (normal cells); [3]): 97.4% of control; POC (percent of control) HDF (HDF (normal cells); [4]): 113.6% of control
Cc1ccc(S(=O)(=O)NCc2ccc3ncccc3c2)cc1 [Compound 22, 4-methyl-N-(quinolin-6-ylmethyl)benzenesulfonamide]	101%	94.5% of control	105.2% of control	99.1%	70.8% of control	85.3%	62.5% of control	109.3% of control	117%	94.6% of control	94.2% of control	93%	94.5% of control	108.2% of control	113%	107.1% of control	96.4% of control	122%	69.9% of control	90.9% of control	activity at 100 µM (SkBr3 (breast cancer)): 106%; POC (percent of control) SkBr3 (SkBr3 (breast cancer); [3]): 83.5% of control; POC (percent of control) SkBr3 (SkBr3 (breast cancer); [4]): 93.5% of control; activity at 100 µM [2]: 105%; POC (percent of control) MCF10A [2, 3]: 70.2% of control; POC (percent of control) MCF10A [2, 4]: 96.9% of control; activity at 100 µM (MDA-MB (breast cancer)): 96.7%; POC (percent of control) MDA-MB (MDA-MB (breast cancer); [3]): 86.5% of control; POC (percent of control) MDA-MB (MDA-MB (breast cancer); [4]): 87.1% of control; activity at 100 µM (HDF (normal cells)): 89.7%; POC (percent of control) HDF (HDF (normal cells); [3]): 76.3% of control; POC (percent of control) HDF (HDF (normal cells); [4]): 85.5% of control
COc1ccc(S(=O)(=O)NCc2c[nH]c3ccccc23)cc1 [Compound 23, N-(1H-indol-3-ylmethyl)-4-methoxybenzenesulfonamide]	84.1%	86.9% of control	93.7% of control	95.9%	78.5% of control	54%	46.6% of control	71.7% of control	93%	83.5% of control	85.6% of control	77.3%	92.9% of control	87.9% of control	96.3%	93.6% of control	121.1% of control	92.1%	47.4% of control	65.3% of control	activity at 100 µM (SkBr3 (breast cancer)): 85.9%; POC (percent of control) SkBr3 (SkBr3 (breast cancer); [3]): 75.5% of control; POC (percent of control) SkBr3 (SkBr3 (breast cancer); [4]): 87.7% of control; activity at 100 µM [2]: 85%; POC (percent of control) MCF10A [2, 3]: 82.8% of control; POC (percent of control) MCF10A [2, 4]: 85.1% of control; activity at 100 µM (MDA-MB (breast cancer)): 98.6%; POC (percent of control) MDA-MB (MDA-MB (breast cancer); [3]): 85.9% of control; POC (percent of control) MDA-MB (MDA-MB (breast cancer); [4]): 83% of control; activity at 100 µM (HDF (normal cells)): 74.6%; POC (percent of control) HDF (HDF (normal cells); [3]): 90.6% of control; POC (percent of control) HDF (HDF (normal cells); [4]): 119.9% of control
